The record followed here is a flash point compilation (Sun et al. 2020).

Each structure is given as a SMILES string.

As to `CNC(C)Cc1ccccc1` (stereo not given) [N-methyl-1-phenylpropan-2-amine], the flash point was found to be 9.00 °C.
Consider `CNC(C)=O` [N-methylacetamide], for which the flash point came out at 108.00 °C.
`CNc1ccccc1` [N-methylaniline] registered a flash point of 79.00 °C.
Consider `CCCCCNCCCCC` [N-pentylpentan-1-amine], for which the flash point turned out to be 51.00 °C.
For `c1ccc(Nc2ccccc2)cc1` [N-phenylaniline], the flash point stood at 153.00 °C.
On to `CC(C)Nc1ccccc1` [N-propan-2-ylaniline], for which the flash point amounted to 88.00 °C.
Take `CCSC(=O)N(CC(C)C)CC(C)C` [S-ethyl N,N-bis(2-methylpropyl)carbamothioate]: the flash point is 116.00 °C.
As to `CCCN(CCC)C(=O)SCC` [S-ethyl N,N-dipropylcarbamothioate], the flash point was 116.00 °C.
For `CCSC(=O)N1CCCCCC1` [S-ethyl azepane-1-carbothioate] the value was 139.00 °C; for `CCCCN(CC)C(=O)SCCC` [S-propyl N-butyl-N-ethylcarbamothioate], 51.00 °C; for `CCSCc1ccccc1OC(=O)NC` [[2-(ethylsulfanylmethyl)phenyl] N-methylcarbamate], 123.00 °C.
On to `NCc1cccc(CN)c1` [[3-(aminomethyl)phenyl]methanamine], for which the flash point was 117.00 °C.
In the case of `COC(=O)Nc1cccc(OC(=O)Nc2cccc(C)c2)c1` [[3-(methoxycarbonylamino)phenyl] N-(3-methylphenyl)carbamate], the flash point amounted to 74.00 °C.
Turning to `OCC1CCC(CO)CC1.OCC1CCC(CO)CC1` (stereo not given) [[4-(hydroxymethyl)cyclohexyl]methanol], the flash point worked out at 166.00 °C.
As for `Br/C=C/c1ccccc1` [[(E)-2-bromoethenyl]benzene], the flash point amounted to 79.00 °C.
For `CCC[CH2][Sn]([CH2]CCC)([O]C(C)=O)[O]C(C)=O` [[acetyloxy(dibutyl)stannyl] acetate] the value was 143.00 °C; for `CCCCCCCCCCCC(=O)[O][Sn]([CH2]CCC)([CH2]CCC)[O]C(=O)CCCCCCCCCCC` [[dibutyl(dodecanoyloxy)stannyl] dodecanoate], 235.00 °C; for `C1=Cc2cccc3cccc1c23` [acenaphthylene], 122.00 °C.
Compound `CC=O` [acetaldehyde] yielded a flash point of -40.00 °C.
Regarding `CC(=O)O` [acetic acid], the flash point was 40.00 °C.
`CC(=O)OCN=[N+](C)[O-]` [acetyloxymethylimino-methyl-oxidoazanium] returned a flash point of 99.00 °C.
`Cl.Nc1ccccc1` [aniline;hydrochloride] had a flash point of 193.00 °C.
In the case of `O=C1c2ccccc2C(=O)c2ccccc21` [anthracene-9,10-dione], the flash point came to 185.00 °C.
The compound `c1ccc2cc3ccccc3cc2c1` [anthracene] showed a flash point of 121.00 °C.
The value for `Cc1ccc([N+](=O)[O-])cc1.N.Nc1cccc([N+](=O)[O-])c1.Nc1ccccc1[N+](=O)[O-]` [azane;1-methyl-4-nitrobenzene;2-nitroaniline;3-nitroaniline] was 154.00 °C.
For `O=C1CCCCCN1` [azepan-2-one] the value was 125.00 °C; for `C1CCCNCC1` [azepane], 37.00 °C; for `Nc1ccccc1N` [benzene-1,2-diamine], 156.00 °C.
Compound `Oc1ccccc1O` [benzene-1,2-diol] gave a flash point of 127.00 °C.
The value for `Nc1cccc(N)c1` [benzene-1,3-diamine] was 138.00 °C; that for `O=C(Cl)c1cccc(C(=O)Cl)c1` [benzene-1,3-dicarbonyl chloride] was 180.00 °C; that for `O=S(=O)(O)c1ccccc1` [benzenesulfonic acid] was 113.00 °C.
Compound `O=C(O)c1ccccc1` [benzoic acid] showed a flash point of 121.00 °C.
For the compound `O=C(OOC(=O)c1ccccc1)c1ccccc1` [benzoyl benzenecarboperoxoate], the flash point came to 80.00 °C.
For the compound `O=C(Cl)c1ccccc1` [benzoyl chloride], the flash point was determined as 72.00 °C.
For the compound `O=C(OCc1ccccc1)c1ccccc1O` [benzyl 2-hydroxybenzoate], the flash point came out at 180.00 °C.
The value for `O=C(Cl)OCc1ccccc1` [benzyl carbonochloridate] was 108.00 °C; that for `c1ccc(Cc2ccccc2)cc1` [benzylbenzene] was 130.00 °C.
The value for `C1=CC2C=CC1C2` [bicyclo[2.2.1]hepta-2,5-diene] was -21.00 °C; that for `CCCCC(CC)COC(=O)/C=C\C(=O)OCC(CC)CCCC` (stereo not given) [bis(2-ethylhexyl) (Z)-but-2-enedioate] was 185.00 °C; that for `CCCCC(CC)COC(=O)c1ccccc1C(=O)OCC(CC)CCCC` (stereo not given) [bis(2-ethylhexyl) benzene-1,2-dicarboxylate] was 207.00 °C.
With `CCCCC(CC)COP(=O)(O)OCC(CC)CCCC` (stereo not given) [bis(2-ethylhexyl) hydrogen phosphate], the flash point amounted to 196.00 °C.
For `COCCOC(=O)c1ccccc1C(=O)OCCOC` [bis(2-methoxyethyl) benzene-1,2-dicarboxylate] the value was 210.00 °C.
As for `CC(C)COC(=O)c1ccccc1C(=O)OCC(C)C` [bis(2-methylpropyl) benzene-1,2-dicarboxylate], the flash point amounted to 196.00 °C.
For `CC(C)CCCCCOC(=O)CCCCC(=O)OCCCCCC(C)C` [bis(6-methylheptyl) hexanedioate], the flash point stood at 210.00 °C.
`O=C(OCC1CO1)C1CCCCC1C(=O)OCC1CO1` (stereo not given) [bis(oxiran-2-ylmethyl) cyclohexane-1,2-dicarboxylate] showed a flash point of 190.00 °C.
`C=CCOC(=O)c1ccccc1C(=O)OCC=C` [bis(prop-2-enyl) benzene-1,2-dicarboxylate] gave a flash point of 110.00 °C.
Regarding `Brc1ccccc1` [bromobenzene], the flash point worked out at 51.00 °C.
As to `OCC#CCO` [but-2-yne-1,4-diol], the flash point worked out at 128.00 °C.
For `CCCCO.[Ti]` [butan-1-ol;titanium] the value was 77.00 °C; for `CCCC[O-].CCCC[O-].CCCC[O-].CCCC[O-].[Ti+4]` [butan-1-olate;titanium(4+)], 77.00 °C; for `CCCC=O` [butanal], -7.00 °C.
`CC(O)CCO` (stereo not given) [butane-1,3-diol] gave a flash point of 121.00 °C.
Turning to `CC(O)C(C)O` (stereo not given) [butane-2,3-diol], the flash point was found to be 85.00 °C.
Compound `CCC(C)S` (stereo not given) [butane-2-thiol] yielded a flash point of -23.00 °C.
`CCCC` [butane] registered a flash point of -60.00 °C.
For `CCCC#N` [butanenitrile] the value was 17.00 °C; for `CCCC(=O)O` [butanoic acid], 77.00 °C.
In turn, `CCCC(=O)OC(=O)CCC` [butanoyl butanoate] displayed a flash point of 82.00 °C.
Compound `C=C(C)C(=O)OCCCC` [butyl 2-methylprop-2-enoate] came in with a flash point of 52.00 °C.
With `CCCCOC(=O)c1ccc(O)cc1` [butyl 4-hydroxybenzoate], the flash point was found to be 181.00 °C.
Turning to `CCCCOC(=O)[C@@H](C)Oc1ccc(Oc2ccc(C#N)cc2F)cc1` [butyl (2R)-2-[4-(4-cyano-2-fluorophenoxy)phenoxy]propanoate], the flash point is 122.00 °C.
In turn, `CCCCOC(=O)CCC` [butyl butanoate] gave a flash point of 53.00 °C.
`CCCCCCCCCCCCCCCCCC(=O)OCCCC` [butyl octadecanoate] had a flash point of 160.00 °C.
In turn, `CCCC[Si](Cl)(Cl)Cl` [butyl(trichloro)silane] yielded a flash point of 52.00 °C.
For `CCC[CH2][Sn]([Cl])([Cl])[Cl]` [butyl(trichloro)stannane] the value was 81.00 °C.
The compound `C[CH2][Al]([Cl])[CH2]C.C[CH2][Al]([Cl])[Cl]` [chloro(diethyl)alumane;dichloro(ethyl)alumane] came in with a flash point of -20.00 °C.
For `C[CH2][Al]([Cl])[CH2]C` [chloro(diethyl)alumane] the value was -23.00 °C; for `Clc1ccccc1` [chlorobenzene], 24.00 °C.
In turn, `CCCCCCCCCCCCCCCCCC(=O)[O-].[Cl-].[Cl-].[Cl-].[Cl-].[Cr+3].[Cr+3].[OH-]` [chromium(3+);octadecanoate;tetrachloride;hydroxide] had a flash point of 2.00 °C.
For `C1CCCCCC1` [cycloheptane] the value was 6.00 °C; for `O=CC1CC=CCC1` (stereo not given) [cyclohex-3-ene-1-carbaldehyde], 57.00 °C; for `NC1CCCCC1` [cyclohexanamine], 31.00 °C.
Turning to `OC1CCCCC1` [cyclohexanol], the flash point was 68.00 °C.
`CC(=O)OC1CCCCC1` [cyclohexyl acetate] came in with a flash point of 58.00 °C.
As for `[C-]1=CC=CC1.[C-]1=CC=CC1.[Ni+2]` [cyclopenta-1,3-diene;nickel(2+)], the flash point is 4.00 °C.
With `C1=CCC=C1.C1=CCC=C1.[Ni]` [cyclopenta-1,3-diene;nickel], the flash point was 4.00 °C.
In turn, `OC1CCCC1` [cyclopentanol] came in with a flash point of 51.00 °C.
Compound `O=C1CCCC1` [cyclopentanone] displayed a flash point of 30.00 °C.
`C1=CCCC1` [cyclopentene] yielded a flash point of -34.00 °C.
`CCCCCCCCCC` [decane] returned a flash point of 46.00 °C.
`C=CC(=O)OCCCCCCCCCC` [decyl prop-2-enoate] gave a flash point of 127.00 °C.
In turn, `CCCCOC(=O)CCC(=O)OCCCC` [dibutyl butanedioate] yielded a flash point of 135.00 °C.
Regarding `CC[Si](Cl)(Cl)CC` [dichloro(diethyl)silane], the flash point is 24.00 °C.
`ClC(Cl)c1ccccc1` [dichloromethylbenzene] showed a flash point of 92.00 °C.
